Reference: patent US20140303092A1 (CHIMERIX, INC., priority 2011, published 2014)

Assay: Study HDP-CDV-201: safety and tolerability (adverse events, laboratory abnormalities, discontinuations)
Assay type: in vivo, human (adult allogeneic HSCT recipients)
Conditions: 200 mg BIW
Description: Clinical Studies of HDP-CDV were performed and described in detail in the following Examples. For example, HDP-CDV-201 is a placebo-controlled, dose-escalating trial in HSCT CMV (R+) recipients, evaluating the ability of HDP-CDV to prevent or control CMV infection was carried out. Five cohorts were established in which participants or subjects received either placebo or the HDP-CDV orally, in doses ranging from 40 mg weekly (QW) to 200 mg twice weekly (BIW). Subjects who were post-HSCT were enrolled at the time of engraftment and randomized to HDP-CDV or placebo (3 to 1 ratio) and received blinded therapy until approximately 100 day post-transplantation. HDP-CDV doses were 40 mg QW, 100 mg QW, 200 mg QW, 200 mg BIW and 100 mg BIW. Escalation to the next dose was decided by the data monitoring committee after review of the safety data from the previous Cohort. Subjects who developed CMV disease or CMV infection requiring pre-emptive therapy with local standard of care were discontinued from blinded therapy and followed for 4 weeks. Subjects who completed treatment with blinded therapy were followed for 8 weeks post-therapy.
Data from Study HDP-CDV-201 also provided characterization of the safety and tolerability profile of HDP-CDV when administered for the prevention or control of CMV infection in high risk (R^+) post-HSCT adult subjects.
The Safety population (SAFETY) included all randomized subjects who took at least one dose of study treatment. This population was used to summarize safety outcomes based on the treatment actually received, in cases where a subject was treated contrary to the randomization schedule.
The safety and tolerability profile of HDP-CDV, including subject demographics and Baseline characteristics; the AE profile; and laboratory abnormalities of interest were analyzed in the cohorts followed in this investigation.
Subjects completing the treatment period received a full course of study medication; those completing the entire study attended visits through 8 weeks of follow up. Subjects who discontinued treatment may have done so for protocol specified reasons (e.g. development of clinically significant CMV infection requiring preemptive treatment with excluded anti-CMV medications) or for other reasons (e.g., withdrawal, adverse events, loss to follow-up). The disposition of subjects in Study HDP-CDV-201 during the double-blind, placebo-controlled treatment period (through Week 11) is listed by dosing Cohort in TABLE 23.
Adverse events were examined by severity to ensure that all safety signals were identified in this study population. Because of the frequency of events in HSCT recipients, particular attention was given to evaluation of Grade 3 […], 4 (severe), and 5 (fatal) adverse events.
Only those preferred terms for which at least one Grade 3 or higher event was experienced in any treatment group are listed. Cytomegalovirus-related AEs are excluded from this analysis.
HDP-CDV is a lipid conjugate of CDV. Because CDV is known to have adverse effects on renal function and bone marrow, decreased GFR and persistent neutropenia were identified as AEs of special interest. Key renal and hematological (TABLE 30) laboratory parameters were measured and listed below by Study HDP-CDV-201 treatment groups. TABLE 30 includes abnormal levels of serum creatinine, neutrophils, platelets, WBCs, and hemoglobin and includes data at Screening and during the treatment period.
A common metric for unit based dosing of medications is by weight (mg/kg). When the distribution of weights was examined for all subjects participating in the study, the median was 78 kg and the lower 25th percentile weight was approximately 65 kg, which translates to a cut-off of ˜3 mg/kg for a 200 mg total weekly dose. Based upon this approach, a cut-off of 3 mg/kg was used to assess the frequency of diarrhea and associated GI AEs reported for the subjects in Cohorts 3 or 4a (TABLE 40).

For `CCCCCCCCCCCCCCCCOCCCOP(=O)(O)COC(CO)Cn1ccc(N)nc1=O` (stereo not drawn) [HDP-CDV], the “TEAE Abdominal pain, Grade 3” value was 0, the “TEAE Abdominal pain, Grade 4” value was 0 and the “TEAE Abdominal pain, Grade 5” value was 0. The “TEAE Acute GVHD, Frequency” value was 24 (80.0%), the “TEAE Acute GVHD, Grade 2” value was 8 (26.6%) and the “TEAE Acute GVHD, Grade 3” value was 10 (30.0%). The “TEAE Acute GVHD, Grade 4” value was 2 (6.7%), the “TEAE Acute GVHD, Grade 5” value was 3 (10.0%) and the “TEAE Arthralgias, Frequency” value was 1 (3.3%). For the same compound, the “TEAE Arthralgias, Grade 2” value was 1 (3.3%), the “TEAE Arthralgias, Grade 3” value was 0 and the “TEAE Arthralgias, Grade 4” value was 0. For the same compound, the “TEAE Arthralgias, Grade 5” value was 0, the “TEAE Back Pain, Frequency” value was 3 (10.0%) and the “TEAE Back Pain, Grade 2” value was 1 (3.3%). The “TEAE Back Pain, Grade 3” value was 0, the “TEAE Back Pain, Grade 4” value was 0 and the “TEAE Back Pain, Grade 5” value was 0. For the same compound, the “TEAE Decreased appetite, Frequency” value was 5 (16.7%), the “TEAE Decreased appetite, Grade 2” value was 4 (13.3%) and the “TEAE Decreased appetite, Grade 3” value was 0. For the same compound, the “TEAE Decreased appetite, Grade 4” value was 0, the “TEAE Decreased appetite, Grade 5” value was 0 and the “TEAE Diarrhea, Frequency” value was 21 (70.0%). The “TEAE Diarrhea, Grade 2” value was 8 (26.7%), the “TEAE Diarrhea, Grade 3” value was 11 (36.7%) and the “TEAE Diarrhea, Grade 4” value was 0. For the same compound, the “TEAE Diarrhea, Grade 5” value was 0, the “TEAE Fatigue, Frequency” value was 0 and the “TEAE Fatigue, Grade 2” value was 0. For the same compound, the “TEAE Fatigue, Grade 3” value was 0, the “TEAE Fatigue, Grade 4” value was 0 and the “TEAE Fatigue, Grade 5” value was 0. For the same compound, the “TEAE GGT Increased, Frequency” value was 3 (10.0%), the “TEAE GGT Increased, Grade 2” value was 0 and the “TEAE GGT Increased, Grade 3” value was 1 (3.3%). For the same compound, the “TEAE GGT Increased, Grade 4” value was 1 (3.3%), the “TEAE GGT Increased, Grade 5” value was 0 and the “TEAE Generalized oedema, Frequency” value was 3 (10.0%). The “TEAE Generalized oedema, Grade 2” value was 0, the “TEAE Generalized oedema, Grade 3” value was 2 (6.7%) and the “TEAE Generalized oedema, Grade 4” value was 0. The “TEAE Generalized oedema, Grade 5” value was 0, the “TEAE Hyperbilirubinaemia, Frequency” value was 5 (16.7%) and the “TEAE Hyperbilirubinaemia, Grade 2” value was 1 (3.3%). The “TEAE Hyperbilirubinaemia, Grade 3” value was 0, the “TEAE Hyperbilirubinaemia, Grade 4” value was 1 (3.3%) and the “TEAE Hyperbilirubinaemia, Grade 5” value was 0. The “TEAE Hyperglycaemia, Frequency” value was 8 (26.7%), the “TEAE Hyperglycaemia, Grade 2” value was 5 (16.7%) and the “TEAE Hyperglycaemia, Grade 3” value was 2 (6.7%). For the same compound, the “TEAE Hyperglycaemia, Grade 4” value was 0, the “TEAE Hyperglycaemia, Grade 5” value was 0 and the “TEAE Hyperkalemia, Frequency” value was 3 (10.0%). The “TEAE Hyperkalemia, Grade 2” value was 1 (3.3%), the “TEAE Hyperkalemia, Grade 3” value was 1 (3.3%) and the “TEAE Hyperkalemia, Grade 4” value was 0. For the same compound, the “TEAE Hyperkalemia, Grade 5” value was 0, the “TEAE Hypocalcaemia, Frequency” value was 3 (10.0%) and the “TEAE Hypocalcaemia, Grade 2” value was 1 (3.3%). For the same compound, the “TEAE Hypocalcaemia, Grade 3” value was 1 (3.3%), the “TEAE Hypocalcaemia, Grade 4” value was 0 and the “TEAE Hypocalcaemia, Grade 5” value was 0. For the same compound, the “TEAE Hypokalaemia, Frequency” value was 5 (16.7%), the “TEAE Hypokalaemia, Grade 2” value was 1 (3.3%) and the “TEAE Hypokalaemia, Grade 3” value was 1 (3.3%). For the same compound, the “TEAE Hypokalaemia, Grade 4” value was 0, the “TEAE Hypokalaemia, Grade 5” value was 0 and the “TEAE Hyponatraemia, Frequency” value was 2 (6.7%). The “TEAE Hyponatraemia, Grade 2” value was 0, the “TEAE Hyponatraemia, Grade 3” value was 0 and the “TEAE Hyponatraemia, Grade 4” value was 0. The “TEAE Hyponatraemia, Grade 5” value was 0, the “TEAE LFT Abnormal, Frequency” value was 3 (10.0%) and the “TEAE LFT Abnormal, Grade 2” value was 1 (3.3%). The “TEAE LFT Abnormal, Grade 3” value was 1 (3.3%), the “TEAE LFT Abnormal, Grade 4” value was 0 and the “TEAE LFT Abnormal, Grade 5” value was 0. The “TEAE Leukocytosis, Frequency” value was 3 (10.0%), the “TEAE Leukocytosis, Grade 2” value was 1 (3.3%) and the “TEAE Leukocytosis, Grade 3” value was 0. For the same compound, the “TEAE Leukocytosis, Grade 4” value was 0, the “TEAE Leukocytosis, Grade 5” value was 0 and the “TEAE Nausea, Frequency” value was 11 (36.7%). The “TEAE Nausea, Grade 2” value was 6 (20.0%), the “TEAE Nausea, Grade 3” value was 1 (3.3%) and the “TEAE Nausea, Grade 4” value was 0. For the same compound, the “TEAE Nausea, Grade 5” value was 0, the “TEAE Neutropenia, Frequency” value was 4 (13.3%) and the “TEAE Neutropenia, Grade 2” value was 0. The “TEAE Neutropenia, Grade 3” value was 1 (3.3%), the “TEAE Neutropenia, Grade 4” value was 2 (6.7%) and the “TEAE Neutropenia, Grade 5” value was 0. The “TEAE Pneumonia, Frequency” value was 1 (3.3%), the “TEAE Pneumonia, Grade 2” value was 0 and the “TEAE Pneumonia, Grade 3” value was 1 (3.3%). For the same compound, the “TEAE Pneumonia, Grade 4” value was 0, the “TEAE Pneumonia, Grade 5” value was 0 and the “TEAE Pyrexia, Frequency” value was 2 (6.7%). For the same compound, the “TEAE Pyrexia, Grade 2” value was 0, the “TEAE Pyrexia, Grade 3” value was 0 and the “TEAE Pyrexia, Grade 4” value was 0. The “TEAE Pyrexia, Grade 5” value was 0, the “TEAE Renal Failure, Frequency” value was 0 and the “TEAE Renal Failure, Grade 2” value was 0. The “TEAE Renal Failure, Grade 3” value was 0, the “TEAE Renal Failure, Grade 4” value was 0 and the “TEAE Renal Failure, Grade 5” value was 0. For the same compound, the “TEAE Staphylococcal Bacteremia, Frequency” value was 1 (3.3%), the “TEAE Staphylococcal Bacteremia, Grade 2” value was 0 and the “TEAE Staphylococcal Bacteremia, Grade 3” value was 1 (3.3%).
